Like-named read-outs stand apart in the source and are kept apart here.
Experiments:
breast tumors = assay: PET imaging of ER+ breast tumors in patients; assay type: in vivo, human
Procedure: This example describes a ligand for imaging ER (+) breast tumors by positron emission tomography (PET) or single photon emission computed tomography (SPECT).
PET imaging was performed on three breast cancer patients (age 54±3) (ER+) with a positron camera (Positron Corporation, Houston, Tex.). Each patient was positioned supine in the scanner so that the detector rings would span the entire breast cancer region. A 20-min attenuation scan was performed with a 4 mCi [^68 Ge]-ring source prior to [^18 F]FTX. After each patient received 4 mCi of {^18 F]FTX, six consecutive 20 min scans were acquired. Serial transaxial images were performed. The tomograph has a field-of-view of 42 cm on transverse and 12 cm on coronal plans. The axial resolution on the reconstructed plan is 1.2 cm. […] The SUV value is generated using a dedicated computer.

uterus and ovaries = assay: PET imaging of pig uterus and ovaries and blood clearance in pigs; assay type: in vivo; details: for Uterus/ovary uptake in PET image (in words): 1 h postinjection
Procedure: PET imaging was performed on four domestic female pigs (30 lb) with a positron camera (Positron Corporation, Houston, Tex). Each pig was supine in the scanner so that the detector rings would span the entire pelvic region. Prior to scanning, the position of the uterus and ovaries was determined by hysterosalpingography. Fifteen milliliters of radiopaque (Renografin 76 Squibb Diagnostic, New Brunswick, N.J.) was injected through the vagina into the uterus via a 5 Fr catheter with the balloon inflated by 1 ml of air. Radiographs of the pelvis in the anterior-posterior projection were taken. The location of the uterus was marked permanently on the skin of each pig for positioning in the PET camera.
A 20 min attenuation scan was performed with a 4 mCi ^68 Ge-ring source prior to tracer injection. After each pig received 10 mCi of [^18 F]FTX, […] consecutive 10 min scans were acquired. There was a 5 min wait between scans for data transfer. […] In order to examine the blood clearance profile of [^18 F]FTX, venous blood samples (0.5 ml) were collected every minute for the first ten minutes, followed by every ten minutes up to two hours. Serial transaxial images of the pelvic region were performed in order to view the uterus. The tomograph has a field-of-view of t42 cm on transverse and 12 cm on coronal planes. The axial resolution on the reconstructed plane is 1.2 cm.

[1] = Biodistribution in mammary tumor-bearing rats primed with estradiol; assay type: in vivo, rat; details: for tissue uptake at 1 h / tissue uptake at 3 h / tissue uptake at 6 h / tissue uptake at 24 h: rat, iv
Procedure: Female Fisher 344 rats (250-275 g) (Harlan, Inc., Indianapolis, Ind.) were inoculated with mammary tumor cells using the 13762 tumor cell line (s.c. 10^5 cells/rat). After 14 days, a tumor size of 1-2 cm was observed. For ^131 I-ITX studies, five groups of rats (N=3/group) were anesthetized with ketamine (10-15 mg/rat). […] In blocking studies, the fifth group of rats was given diethylstilbestrol (DES) (1.2 mg/rat) for 1 h, followed by 8.9 μCi of ^131 I-ITX; biodistribution was studied 6 h later. The tissues were collected at different time intervals. The tissues were weighted and counted for radioactivity. The percent of injected dose per gram of tissue weight was calculated.
[…]. The biodistribution studies were conducted at 1, 3, 6 and 24 h.

rabbit uterus = assay: Gamma scintigraphic imaging of estrogen receptor sites in rabbits; assay type: in vivo; details: for Rabbit uterus uptake after DES block (in words): DES 15 mg iv pretreatment
Procedure: Gamma scintigraphic images were obtained from GE Starport System (GE Company, Milwaukee, Wis.). […] Each pixel was 14 bits deep. Six New Zealand female rabbits (3-4 Kg B.W.) were administered 300 μCi of [^131 I]iodotamoxifen (iv) and multiple images at 2, 24 and 48 hours were accomplished. To ascertain the radioactivity uptake in uterus is via an ER-mediated process, the rabbits were administered with diethylstilbestrol (15 mg,iv) 1 hour prior to receiving [^131 I]ITX and the images were obtained at 2, 24 and 48 hours.

With `CCN(CC)CCOc1ccc(/C(=C(/CCC[18F])c2ccccc2)c2ccccc2)cc1` [[^18 F]FTX, (trans)[^18 F]Fluoromethyl-N,N-diethyltamoxifen] the SUV (breast tumors; patient 1, left axilla) was 0.7, the SUV (breast tumors; patient 2, mediastinum) was 1.8 and the SUV (breast tumors; patient 3, left axilla) was 2.6. It also gave an SUV (breast tumors; patient 3, right axilla) of 2.2, an SUV (breast tumors; patient 3, right breast) of 1.6 and an SUV (breast tumors; patient 3, spine) of 3.0. For the same compound, the “SUV of breast tumors” value (breast tumors; three patients, 4 mCi) was 2-5, the “SUV in tumor of patients responding well to tamoxifen therapy” value (breast tumors; three patients, listed as 18 F-tamoxifen) was > 2.4 and the “SUV in tumor of patients responding well to tamoxifen therapy” value (breast tumors; three patients, listed as [^18 F]fluorotamoxifen) was “more than 2.4”. For the same compound, the “Time to clearance from the blood stream” value (uterus and ovaries; 10 mCi i.v., pig) was ≤ 10 min, the “Uterus/ovary uptake in PET image (in words)” value (“Uterus/ovary uptake” for short) (uterus and ovaries; 10 mCi i.v.) was “increased uptake could be blocked after pretreatment with DES” and the “Uterus/ovary uptake” value (uterus and ovaries; 10 mCi i.v., listed as 18 F-tamoxifen) was “can be blocked with DES”. The “Uterus/ovary uptake” value (uterus and ovaries; 10 mCi i.v., listed as 18 F-tracer) was “increased uptake could be blocked after pretreatment with diethylstilbestrol” and the “Target organ binding (in words)” value (uterus and ovaries; 30 minutes to 2 hours post-administration, pig) was “constant”.
In the case of `CCN(CC)CCOc1ccc(/C(=C(/CCC[131I])c2ccccc2)c2ccccc2)cc1` [^131 I-IODOTAMOXIFEN], the Tumor uptake ([1]; 1 h, listed as 131 I-Iodo Analogue of Tamoxifen, 60 min) is reported as 0.303 ± 0.0333 % injected dose/gram tissue, the Tumor uptake ([1]; 3 h, listed as 131 I-Iodo Analogue of Tamoxifen, 180 min) is reported as 0.422 ± 0.0389 % injected dose/gram tissue and the Tumor uptake ([1]; 6 h, listed as 131 I-Iodo Analogue of Tamoxifen, 360 min) is reported as 0.479 ± 0.1065 % injected dose/gram tissue. The Tumor uptake ([1]; 24 h, listed as 131 I-ITX, 1440 min) was 0.397±0.1231 % injected dose/gram tissue, the Tumor uptake ([1]; 24 h, listed as 131 I-Iodo Analogue of Tamoxifen, 1440 min) was 0.397 % injected dose/gram tissue and the tissue uptake at 1 h ([1]; blood, 10 uCi/rat, 1 h, read-out: Blood uptake) was 0.155 ± 0.004 %ID/g. The tissue uptake at 3 h ([1]; blood, 10 uCi/rat, 3 h, read-out: Blood uptake) was 0.12 ± 0.0137 %ID/g, the tissue uptake at 6 h ([1]; blood, 10 uCi/rat, 6 h, read-out: Blood uptake) was 0.086 ± 0.0018 %ID/g and the tissue uptake at 24 h ([1]; blood, 10 uCi/rat, 24 h, read-out: Blood uptake) was 0.036 ± 0.0001 %ID/g. For the same compound, the tissue uptake at 1 h ([1]; kidney, 10 uCi/rat, 1 h, read-out: Kidney uptake) was 1.3 ± 0.0839 %ID/g, the tissue uptake at 3 h ([1]; kidney, 10 uCi/rat, 3 h, read-out: Kidney uptake) was 1.49 ± 0.107 %ID/g and the tissue uptake at 6 h ([1]; kidney, 10 uCi/rat, 6 h, read-out: Kidney uptake) was 1.39 ± 0.116 %ID/g. The tissue uptake at 24 h ([1]; kidney, 10 uCi/rat, 24 h, read-out: Kidney uptake) was 0.573 %ID/g, the tissue uptake at 1 h ([1]; liver, 10 uCi/rat, 1 h, read-out: Liver uptake) was 6.746 ± 0.0546 %ID/g and the tissue uptake at 3 h ([1]; liver, 10 uCi/rat, 3 h, read-out: Liver uptake) was 6.73 ± 0.122 %ID/g. It also gave a tissue uptake at 6 h ([1]; liver, 10 uCi/rat, 6 h, read-out: Liver uptake) of 4.67 ± 0.461 %ID/g, a tissue uptake at 24 h ([1]; liver, 10 uCi/rat, 24 h, read-out: Liver uptake) of 2.71 %ID/g and a tissue uptake at 1 h ([1]; lung, 10 uCi/rat, 1 h, read-out: Lung uptake) of 2.83 ± 0.14 %ID/g. For the same compound, the tissue uptake at 3 h ([1]; lung, 10 uCi/rat, 3 h, read-out: Lung uptake) was 3.04 ± 0.411 %ID/g, the tissue uptake at 6 h ([1]; lung, 10 uCi/rat, 6 h, read-out: Lung uptake) was 3.06 ± 0.458 %ID/g and the tissue uptake at 24 h ([1]; lung, 10 uCi/rat, 24 h, read-out: Lung uptake) was 1.12 %ID/g. For the same compound, the tissue uptake at 1 h ([1]; muscle, 10 uCi/rat, 1 h, read-out: Muscle uptake) was 0.214 ± 0.0176 %ID/g, the tissue uptake at 3 h ([1]; muscle, 10 uCi/rat, 3 h, read-out: Muscle uptake) was 0.242 ± 0.187 %ID/g and the tissue uptake at 6 h ([1]; muscle, 10 uCi/rat, 6 h, read-out: Muscle uptake) was 0.253 ± 0.0208 %ID/g. For the same compound, the tissue uptake at 24 h ([1]; muscle, 10 uCi/rat, 24 h, read-out: Muscle uptake) was 0.114 %ID/g, the tissue uptake at 1 h ([1]; tumor, 1 h, read-out: Tumor uptake) was 0.3 ± 0.033 %ID/g and the tissue uptake at 3 h ([1]; tumor, 3 h, read-out: Tumor uptake) was 0.42 %ID/g. The tissue uptake at 6 h ([1]; tumor, 6 h, read-out: Tumor uptake) was 0.48 ± 0.107 %ID/g, the tissue uptake at 24 h ([1]; tumor, 24 h, read-out: Tumor uptake) was 0.4 ± 0.123 %ID/g and the tissue uptake at 1 h ([1]; uterus, 10 uCi/rat, 1 h, read-out: Uterus uptake) was 0.334 ± 0.0485 %ID/g. It also gave a tissue uptake at 3 h ([1]; uterus, 10 uCi/rat, 3 h, read-out: Uterus uptake) of 0.4 ± 0.132 %ID/g, a tissue uptake at 6 h ([1]; uterus, 10 uCi/rat, 6 h, read-out: Uterus uptake) of 0.559 ± 0.0982 %ID/g and a tissue uptake at 24 h ([1]; uterus, 10 uCi/rat, 24 h, read-out: Uterus uptake) of 0.335 %ID/g. The “uterus:muscle uptake ratio” value (rabbit uterus; 24 h postinjection) was 4.6, the “Rabbit uterus uptake after DES block (in words)” value (“Rabbit uterus uptake” below) (rabbit uterus; listed as 131 l-iodotamoxifen) was “the uterus showed decreased uptake” and the “Rabbit uterus uptake” value (rabbit uterus; listed as [^131 I]ITX) was “rabbit uterus uptake can be blocked by pretreatment with DES”. For the same compound, the “Rabbit uterus uptake” value (rabbit uterus; listed as [^131 ]ITX) was “increased uptake can be blocked by pretreatment of the rabbit with DES”.
